Consider two molecules from patent US20080096905A1, “Process For Preparing Pyrido[2,3-D]Pyrimidin-7-One And 3,4-Dihydropyrimido{4,5-D}Pyrimidin-2(1H)-One Derivatives” (Glaxo Group Limited, priority 2005, published 2008).

Molecule `Cc1c(F)cc(C(=O)NC2CC2)cc1-c1nc(NC(CO)CO)nc2c1ccc(=O)n2-c1c(F)cccc1F` [Example 49, N-cyclopropyl-3-(8-(2,6-difluorophenyl)-2-{[2-hydroxy-1-(hydroxymethyl)ethyl]amino}-7-oxo-7,8-dihydropyrido[2,3-d]pyrimidin-4-yl)-5-fluoro-4-methylbenzamide] gave a melting point of 214.2 to 217.5 °C.
Take `CSc1nc(-c2cc(C(=O)N(C)C)ccc2C)c2c(n1)N(c1c(F)cccc1F)C(=O)NC2` [Example 73, 3-[8-(2,6-difluorophenyl)-2-(methylthio)-7-oxo-5,6,7,8-tetrahydropyrimido[4,5-d]pyrimidin-4-yl]-N,N,4-trimethylbenzamide]: the melting point lay within 144 to 147 °C.
